Assay results: patent US10227324B2 (Shanghai Haiyan Pharmaceutical Technology Co., Ltd., priority 2014, dated 2019)
Where two headings read alike, the source gives them in different places.

Columns and labels:
[1] = biological target: T1, PI3K-β kinase (p110β/p85α) (Homo sapiens, UniProt P42338); experiment: Determination of PI3K kinase activity (ADP Transcreener, fluorescence polarization); type: biochemical; settings: Table 1; ATP 10 μM; read-out: PI3K-β/nM (IC50 of inhibitory activity against PI3K kinase)
T1 construct: purchased Millipore 14-603
Protocol: (§1) The inhibition of PI3K kinase activity by the compound to be tested was determined by the following method. The working concentration of each component in the 25 μL enzyme reaction system was: p110α/p85α 3 ng (or p110β/p85α 60 ng, or p110δ/p85α 90 ng, or p110γ 100 ng), ATP 10 μM, PIP2: PS (Invitrogen PV5100) 30 μM and the DMSO concentration was 2% after addition of the compound to be tested.
(§2) At the time of the test, the compound to be tested was dissolved in dimethylsulfoxide (DMSO) according to the desired concentration of the experiment. The compound to be tested was gradiently diluted 3 times (0.00046-1 μM, 8 concentration points) with 10% DMSO. 5 μL of the compound to be tested was added to each well of a 96-well plate (Greiner 675076) in duplicate. […] 10 μL of ATP/PIP2: PS and 10 μL of the PI3K enzyme working solution were added to each well in a 96-well plate. The plate was shaken and mixed uniformly, and then incubated at 25° C. for 1 hour. At the same time, ADP and ATP (0.01 μM, 0.02 μM, 0.04 μM, 0.06 μM, 0.08 μM[…], 0.1 μM, 0.25 μM, 0.5 μM, 1 μM, 2 μM, 5 μM, 10 μM, 12 concentration points) were diluted with buffer to set the standard curve. After completion of the enzyme reaction, 25 μL of ADP assay solution (1% 100×ADP tracer, 0.79% ADP antibody and 10% 10× reaction stop solution) was added and incubated at 25° C. for 1 hour. Fluorescence polarization value [mP] of each well was measured with a Perkin Elmer Victor X5 Fluorescent Microplate. The ADP concentration [ADP] was calculated from the ADP/ATP standard curve and the IC50 values were calculated using the XLFit software.

[2] = biological target: T2, PI3K-δ kinase (p110δ/p85α) (Homo sapiens, UniProt O00329); experiment: as above; type: biochemical; settings: Table 1; ATP 10 μM; read-out: PI3K-δ/nM (IC50 of inhibitory activity against PI3K kinase)
T2 construct: purchased Millipore 14-604M
Protocol: as §1, §2

PI3K-γ kinase (p110γ) = biological target: T3, PI3K-γ kinase (p110γ) (Homo sapiens, UniProt P48736); experiment: as above; type: biochemical; settings: Table 1; ATP 10 μM; read-out: PI3K-γ/nM (IC50 of inhibitory activity against PI3K kinase)
T3 construct: purchased Invitrogen PV4786
Protocol: The PI3K kinase used in the experiment: p110α/p85α (Invitrogen PV4788), p110β/p85α (Millipore 14-603), p110δ/p85α (Millipore 14-604M), and p110γ (Invitrogen PV4786).
as §1
as §2, with “duplicate. 2.5× buffer was prepared and 1 μL of DTT (Millipore 20-265) was added to each 800 μL of 2.5× buffer.” for “duplicate.”

NIH3T3 cells = experiment: Cytotoxicity by MTT assay, NIH3T3; type: cell-based; settings: Mus musculus, NIH3T3, 72 h, cytotoxicity class, read-out: NIH3T3 cell (IC50/nM)
Protocol: The MTT assay procedure and steps were carried out as well known to those skilled in the art, and all the reagents used in the methods were commercially available.
(§3) The cells in logarithmic growth phase were digested with 0.25% EDTA trypsin (Gibco, 25200-056) and resuspended in fresh medium. 90 μL of the cell suspension was inoculated into a 96-well cell culture plate (BD Faclon 353072) with a suitable cell density and cultured at 37° C. under 5% CO2. After the cells adhered, 10 μL of the test compound at different concentrations (0.0046-10 μM, 8 concentration points) was added and incubated for another 72 h. 10 μL of MTT (5 mg/mL PBS solution) (Sigma, M5655) was added to react for 4 h. The absorbance at 492 nm was measured by using Thermo Scientific Multiskan MK3 microplate reader and IC50 was calculated using XLFIT 5.0 software (UK IDBS).

[3] = biological target: T4, PI3K-α kinase (p110α/p85α) (Homo sapiens, UniProt P42336); experiment: Determination of PI3K kinase activity (ADP Transcreener, fluorescence polarization); type: biochemical; settings: ATP 10 μM
T4 construct: purchased Invitrogen PV4788
Protocol: as §1, §2

T47D cells = experiment: Cell inhibitory activity detected by MTT assay, T47D; type: cell-based; settings: Homo sapiens, T47D, 72 h, read-out: T47D cell (IC50/nM), cell growth inhibition
Protocol: as §3, with “The MTT assay procedure and steps were carried out as well known to those skilled in the art, and all the reagents used in the methods were commercially available. The cells” for “The cells”, “(UK IDBS). T47D cell culture medium: RPMI-1640 medium (Hyclone SH30809.01B)+10% FBS (Gibco 10099-141)” for “(UK IDBS).”

MCF-7 cells = experiment: Cell inhibitory activity detected by MTT assay, MCF-7; type: cell-based; settings: Homo sapiens, MCF7, 72 h, read-out: MCF-7 cell (IC50/nM), cell growth inhibition
Protocol: as §3, with “The MTT assay procedure and steps were carried out as well known to those skilled in the art, and all the reagents used in the methods were commercially available. The cells” for “The cells”, “(UK IDBS). MCF-7 cell culture medium: DMEM medium (Hyclone SH30243.01B+10% FBS (Gibco 10099-141)” for “(UK IDBS).”

[4] = Table 1, read-out: PI3K-α/nM (IC50 of inhibitory activity against PI3K kinase)
[5] = Table 2, read-out: PI3K-α/nM (IC50 of inhibitory activity against PI3K-α kinase)

T3 sequence (P48736 whole entry): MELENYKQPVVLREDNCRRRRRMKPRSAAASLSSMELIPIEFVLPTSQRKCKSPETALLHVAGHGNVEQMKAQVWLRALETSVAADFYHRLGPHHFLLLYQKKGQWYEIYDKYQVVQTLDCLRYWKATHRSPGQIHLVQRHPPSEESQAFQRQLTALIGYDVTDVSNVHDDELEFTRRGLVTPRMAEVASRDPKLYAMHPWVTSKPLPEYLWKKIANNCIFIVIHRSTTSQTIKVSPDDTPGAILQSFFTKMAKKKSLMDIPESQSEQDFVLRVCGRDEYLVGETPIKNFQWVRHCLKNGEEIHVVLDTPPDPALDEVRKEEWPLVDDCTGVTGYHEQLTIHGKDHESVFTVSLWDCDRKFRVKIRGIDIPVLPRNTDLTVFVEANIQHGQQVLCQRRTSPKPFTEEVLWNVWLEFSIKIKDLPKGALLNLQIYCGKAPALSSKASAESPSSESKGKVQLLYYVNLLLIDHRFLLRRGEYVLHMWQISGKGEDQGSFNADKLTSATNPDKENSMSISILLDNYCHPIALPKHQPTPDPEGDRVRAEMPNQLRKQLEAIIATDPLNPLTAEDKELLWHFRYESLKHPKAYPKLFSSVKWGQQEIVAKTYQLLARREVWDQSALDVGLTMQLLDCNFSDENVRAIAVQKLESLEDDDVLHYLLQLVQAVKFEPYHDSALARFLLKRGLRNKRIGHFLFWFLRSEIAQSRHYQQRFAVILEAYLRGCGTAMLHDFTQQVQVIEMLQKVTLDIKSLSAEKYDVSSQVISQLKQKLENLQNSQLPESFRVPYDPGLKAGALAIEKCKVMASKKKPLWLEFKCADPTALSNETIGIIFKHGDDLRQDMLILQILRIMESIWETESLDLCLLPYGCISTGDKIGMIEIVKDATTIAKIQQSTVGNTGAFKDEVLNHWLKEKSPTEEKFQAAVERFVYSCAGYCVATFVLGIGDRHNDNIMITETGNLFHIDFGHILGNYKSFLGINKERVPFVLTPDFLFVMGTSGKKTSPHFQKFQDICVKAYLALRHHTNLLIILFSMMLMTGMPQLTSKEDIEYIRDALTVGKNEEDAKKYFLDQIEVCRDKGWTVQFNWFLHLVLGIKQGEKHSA
T1 sequence (P42338 whole entry): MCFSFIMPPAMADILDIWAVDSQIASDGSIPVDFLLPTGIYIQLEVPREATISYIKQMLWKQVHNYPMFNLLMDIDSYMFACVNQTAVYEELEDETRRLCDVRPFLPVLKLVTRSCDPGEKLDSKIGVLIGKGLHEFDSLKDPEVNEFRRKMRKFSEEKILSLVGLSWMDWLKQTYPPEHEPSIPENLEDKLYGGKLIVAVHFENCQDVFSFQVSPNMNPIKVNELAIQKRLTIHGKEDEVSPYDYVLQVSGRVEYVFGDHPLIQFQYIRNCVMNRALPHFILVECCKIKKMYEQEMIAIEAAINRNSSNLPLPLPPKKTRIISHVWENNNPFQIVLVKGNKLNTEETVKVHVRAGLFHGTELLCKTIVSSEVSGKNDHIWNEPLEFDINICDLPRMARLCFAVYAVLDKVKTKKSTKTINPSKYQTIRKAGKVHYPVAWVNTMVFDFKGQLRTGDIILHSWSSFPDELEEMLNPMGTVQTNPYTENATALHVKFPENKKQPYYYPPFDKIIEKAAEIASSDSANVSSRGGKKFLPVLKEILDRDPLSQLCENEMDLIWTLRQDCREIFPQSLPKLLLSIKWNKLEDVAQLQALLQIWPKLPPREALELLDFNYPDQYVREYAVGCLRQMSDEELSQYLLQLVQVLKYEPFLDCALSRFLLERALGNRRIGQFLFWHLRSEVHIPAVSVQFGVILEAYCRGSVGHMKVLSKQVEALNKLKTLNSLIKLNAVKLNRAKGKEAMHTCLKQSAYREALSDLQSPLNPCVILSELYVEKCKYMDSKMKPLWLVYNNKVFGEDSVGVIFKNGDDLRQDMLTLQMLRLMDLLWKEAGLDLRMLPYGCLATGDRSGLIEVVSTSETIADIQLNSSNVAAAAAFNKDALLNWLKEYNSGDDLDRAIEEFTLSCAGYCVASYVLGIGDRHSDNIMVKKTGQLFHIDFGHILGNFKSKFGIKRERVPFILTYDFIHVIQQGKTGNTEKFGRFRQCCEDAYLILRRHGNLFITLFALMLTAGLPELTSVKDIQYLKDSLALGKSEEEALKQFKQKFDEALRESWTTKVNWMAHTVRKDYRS
T1 sequence (P27986 whole entry partner): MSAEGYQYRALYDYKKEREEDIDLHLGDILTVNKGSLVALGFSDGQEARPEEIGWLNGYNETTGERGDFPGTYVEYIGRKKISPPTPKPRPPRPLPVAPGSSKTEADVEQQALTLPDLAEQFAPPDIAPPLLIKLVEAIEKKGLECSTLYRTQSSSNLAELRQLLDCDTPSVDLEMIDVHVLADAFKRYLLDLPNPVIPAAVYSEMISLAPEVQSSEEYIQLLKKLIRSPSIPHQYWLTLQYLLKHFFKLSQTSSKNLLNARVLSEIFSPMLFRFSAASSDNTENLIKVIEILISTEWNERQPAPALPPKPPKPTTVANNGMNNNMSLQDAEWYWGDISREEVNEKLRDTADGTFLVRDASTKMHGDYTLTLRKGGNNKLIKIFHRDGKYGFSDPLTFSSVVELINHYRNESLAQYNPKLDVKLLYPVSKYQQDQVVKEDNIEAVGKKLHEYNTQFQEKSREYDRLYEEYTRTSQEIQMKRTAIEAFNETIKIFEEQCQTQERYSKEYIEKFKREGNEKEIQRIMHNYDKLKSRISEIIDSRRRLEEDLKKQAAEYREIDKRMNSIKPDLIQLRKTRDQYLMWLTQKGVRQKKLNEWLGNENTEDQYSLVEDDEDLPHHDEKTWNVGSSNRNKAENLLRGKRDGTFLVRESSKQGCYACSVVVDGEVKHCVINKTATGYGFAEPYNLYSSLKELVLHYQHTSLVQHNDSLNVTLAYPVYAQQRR
T4 sequence (P42336 whole entry): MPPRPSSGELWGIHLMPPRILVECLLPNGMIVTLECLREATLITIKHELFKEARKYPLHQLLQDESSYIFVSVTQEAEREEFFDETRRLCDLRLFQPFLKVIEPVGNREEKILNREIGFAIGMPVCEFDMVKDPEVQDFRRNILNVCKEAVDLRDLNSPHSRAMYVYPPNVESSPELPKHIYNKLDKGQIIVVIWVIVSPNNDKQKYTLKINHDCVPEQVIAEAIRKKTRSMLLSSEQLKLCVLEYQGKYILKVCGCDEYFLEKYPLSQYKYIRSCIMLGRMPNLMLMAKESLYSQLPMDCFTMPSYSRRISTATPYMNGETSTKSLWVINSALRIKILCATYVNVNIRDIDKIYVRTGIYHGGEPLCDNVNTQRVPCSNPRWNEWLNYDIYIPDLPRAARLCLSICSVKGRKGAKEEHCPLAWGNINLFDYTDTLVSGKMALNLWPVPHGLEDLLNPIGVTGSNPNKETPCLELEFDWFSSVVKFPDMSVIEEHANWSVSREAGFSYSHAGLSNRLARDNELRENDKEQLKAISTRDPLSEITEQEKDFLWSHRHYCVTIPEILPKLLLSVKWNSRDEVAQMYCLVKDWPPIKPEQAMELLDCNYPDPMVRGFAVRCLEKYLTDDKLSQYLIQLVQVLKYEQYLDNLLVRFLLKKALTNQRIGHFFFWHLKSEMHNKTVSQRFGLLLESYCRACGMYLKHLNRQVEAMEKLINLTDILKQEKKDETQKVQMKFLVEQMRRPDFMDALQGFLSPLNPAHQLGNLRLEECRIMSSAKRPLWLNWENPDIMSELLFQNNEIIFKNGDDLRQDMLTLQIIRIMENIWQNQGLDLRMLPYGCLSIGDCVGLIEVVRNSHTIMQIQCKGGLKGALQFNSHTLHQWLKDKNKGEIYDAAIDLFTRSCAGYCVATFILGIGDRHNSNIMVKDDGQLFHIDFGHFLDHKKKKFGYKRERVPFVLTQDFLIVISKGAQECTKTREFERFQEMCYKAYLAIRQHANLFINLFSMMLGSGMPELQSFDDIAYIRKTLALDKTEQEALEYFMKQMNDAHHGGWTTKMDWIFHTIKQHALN
T4 sequence (P27986 whole entry partner): as the sequence (P27986 whole entry partner) above
T2 sequence (O00329 whole entry): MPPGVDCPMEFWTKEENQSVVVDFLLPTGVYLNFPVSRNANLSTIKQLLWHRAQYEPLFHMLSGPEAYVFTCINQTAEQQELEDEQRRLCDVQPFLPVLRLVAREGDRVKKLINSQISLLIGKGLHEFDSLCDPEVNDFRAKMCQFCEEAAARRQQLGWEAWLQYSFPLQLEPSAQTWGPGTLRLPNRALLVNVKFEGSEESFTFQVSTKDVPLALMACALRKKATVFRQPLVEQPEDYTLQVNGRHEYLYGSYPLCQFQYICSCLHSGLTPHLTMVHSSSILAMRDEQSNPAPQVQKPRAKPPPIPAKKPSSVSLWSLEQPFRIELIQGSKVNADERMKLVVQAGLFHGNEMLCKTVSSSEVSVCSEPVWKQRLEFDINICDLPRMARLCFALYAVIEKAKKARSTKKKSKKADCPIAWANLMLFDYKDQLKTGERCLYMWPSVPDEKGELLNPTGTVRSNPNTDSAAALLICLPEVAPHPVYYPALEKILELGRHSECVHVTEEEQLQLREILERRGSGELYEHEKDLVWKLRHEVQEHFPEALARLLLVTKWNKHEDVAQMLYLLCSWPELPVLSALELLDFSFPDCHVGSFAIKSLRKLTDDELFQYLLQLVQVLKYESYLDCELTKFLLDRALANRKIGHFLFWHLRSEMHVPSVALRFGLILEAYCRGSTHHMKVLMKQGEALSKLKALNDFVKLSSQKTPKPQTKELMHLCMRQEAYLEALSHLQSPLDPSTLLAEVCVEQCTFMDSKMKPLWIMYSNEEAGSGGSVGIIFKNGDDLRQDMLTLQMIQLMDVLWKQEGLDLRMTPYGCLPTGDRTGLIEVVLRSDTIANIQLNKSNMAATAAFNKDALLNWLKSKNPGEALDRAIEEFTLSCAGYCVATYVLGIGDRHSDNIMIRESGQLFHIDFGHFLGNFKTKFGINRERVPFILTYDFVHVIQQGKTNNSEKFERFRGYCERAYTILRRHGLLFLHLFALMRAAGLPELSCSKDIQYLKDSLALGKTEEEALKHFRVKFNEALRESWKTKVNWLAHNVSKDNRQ
T2 sequence (P27986 whole entry partner): as the sequence (P27986 whole entry partner) above

Row | SMILES | IC50 [1] | IC50 [2] | IC50 (PI3K-γ kinase (p110γ)) | IC50 (NIH3T3 cells) | IC50 [3, 4] | IC50 (T47D cells) | IC50 (MCF-7 cells) | IC50 [3, 5]
1 | CCS(=O)(=O)C(C)(C)c1cc(-c2cnc(N)cc2C(F)(F)F)nc(N2CCOCC2)n1 [Compound S-29] | 1740 nM | 612 nM | 256 nM | 1000 to 3000 nM |  |  |  | 
2 | CS(=O)(=O)C(F)c1cc(-c2cnc(N)cc2C(F)(F)F)nc(N2CCOCC2)n1 (stereo not shown) [Compound S-52, 5-(6-(fluoro(methylsulfonyl)methyl)-2-morpholinopyrimidin-4-yl)-4-(trifluoromethyl)pyridin-2-amine] | 2780 nM | 336 nM | 914 nM | 3000 to 5000 nM | 18 nM |  |  | 
3 | C[C@H]1COCCN1c1nc(-c2cnc(N)cc2C(F)(F)F)cc(C2(S(C)(=O)=O)CC2)n1 [Compound S-6] |  |  | 164 nM | 1000 to 3000 nM | 16 nM | 129 nM | 112 nM | 
4 | CC(=O)NC1(c2cc(-c3cnc(N)cc3C(F)(F)F)nc(N3CCOCC3)n2)CC1 [Compound S-26, N-(1-(6-(6-amino-4-(trifluoromethyl)pyridin-3-yl)-2-morpholinopyrimidin-4-yl)cyclopropyl)acetamide] |  |  |  | > 10000 nM |  |  |  | 390 nM
5 | CN(C1(c2cc(-c3cnc(N)cc3C(F)(F)F)nc(N3CCOCC3)n2)CC1)S(C)(=O)=O [Compound S-14, N-(1-(6-(6-amino-4-(trifluoromethyl)pyridin-3-yl)-2-morpholinopyrimidin-4-yl)cyclopropyl)-N-methylmethanesulfonamide] | 1120 nM |  |  | 1000 to 3000 nM | 13 nM | 278 nM | 267 nM | 
6 | CS(=O)(=O)NC1(c2cc(-c3cnc(N)cc3C(F)(F)F)nc(N3CCOCC3)n2)CC1 [Compound S-24, N-(1-(6-(6-amino-4-(trifluoromethyl)pyridin-3-yl)-2-morpholinopyrimidin-4-yl)cyclopropyl)methanesulfon amide] | 376 nM | 85 nM | 291 nM | 5000 to 10000 nM | 10 nM | 305 nM |  | 
7 | Nc1cc(C(F)(F)F)c(-c2cc(C3(S(=O)(=O)c4ccccc4)CC3)nc(N3CCOCC3)n2)cn1 [Compound S-25] | 217 nM | 67 nM | 1930 nM | 1000 to 3000 nM | 26 nM | 324 nM |  | 
8 | CS(=O)(=O)C1(c2cc(-c3cnc(N)c(C(F)(F)F)c3)nc(N3CCOCC3)n2)CC1 [Compound S-44, 5-(6-(1-(methylsulfonyl)cyclopropyl)-2-morpholinopyrimidin-4-yl)-3-(trifluoromethyl)pyridin-2-amine] |  |  |  | 1000 to 3000 nM |  |  |  | 858 nM
9 | CC(C)S(=O)(=O)C(C)(C)c1cc(-c2cnc(N)cc2C(F)(F)F)nc(N2CCOCC2)n1 [Compound S-22] | 1540 nM | 491 nM | 2120 nM | 1000 to 3000 nM | 55 nM |  |  | 
10 | Nc1cc(C(F)(F)F)c(-c2cc(C3(S(=O)(=O)c4cccc(F)c4)CC3)nc(N3CCOCC3)n2)cn1 [Compound S-57, 5-(6-(1-(3-fluorophenylsulfonyl)cyclopropyl)-2-morpholinopyrimidin-4-yl)-4-(trifluoromethyl)pyridin-2-amine] | 284 nM | 62 nM | 236 nM | 1000 to 3000 nM | 18 nM | 242 nM | 286 nM | 
11 | CCOC(=O)C1(c2cc(-c3cnc(N)cc3C(F)(F)F)nc(N3CCOCC3)n2)CC1 [Compound S-2] |  |  |  | 5000 to 10000 nM |  |  |  | 550 nM
12 | CS(=O)(=O)C(F)(F)c1cc(-c2cnc(N)cc2C(F)(F)F)nc(N2CCOCC2)n1 [Compound S-53] | 1550 nM | 516 nM | 287 nM | 1000 to 3000 nM | 33 nM |  | 408 nM | 
